The numbers were not newly measured in patent US20040037880A1, “Extended release formulation of divalproex sodium” (priority 2002, published 2004), which cites them from elsewhere.

Like-named read-outs stand apart in the source and are kept apart here.

On to `CCCC(CCC)C(=O)O` [valproic acid], for which the elimination half-life (adults) is 6 to 17 h and the elimination half-life (children) is 4 to 14 h.
